Starred links: 1 amine or outer side, 2 acyl side, 3 side chain; linkers in the order of their positions; H or OH if unused. Non-standard residues stand in square brackets, D forms with d. Residues, ends and D or L forms follow the SMILES beside them. *: point of attachment. Exatecan = CC[C@@]1(O)C(=O)OCc2c1cc1n(c2=O)Cc2c-1nc1cc(F)c(C)c3c1c2[C@@H](N*)CC3; Propanoyl(3-maleimido) = O=C1C=CC(=O)N1CCC(=O)*; PABC = O=C(OCc1ccc(N[*:1])cc1)[*:2]
Tests used:
a variety of cell lines = details: versus SN38; cited from earlier work
topo I/DNA complex = molecular target: T1, topo I/DNA complex (Homo sapiens, UniProt P11387); details: versus SN38 (the active metabolite of irinotecan); cited from earlier work
T1 sequence (P11387 1-765): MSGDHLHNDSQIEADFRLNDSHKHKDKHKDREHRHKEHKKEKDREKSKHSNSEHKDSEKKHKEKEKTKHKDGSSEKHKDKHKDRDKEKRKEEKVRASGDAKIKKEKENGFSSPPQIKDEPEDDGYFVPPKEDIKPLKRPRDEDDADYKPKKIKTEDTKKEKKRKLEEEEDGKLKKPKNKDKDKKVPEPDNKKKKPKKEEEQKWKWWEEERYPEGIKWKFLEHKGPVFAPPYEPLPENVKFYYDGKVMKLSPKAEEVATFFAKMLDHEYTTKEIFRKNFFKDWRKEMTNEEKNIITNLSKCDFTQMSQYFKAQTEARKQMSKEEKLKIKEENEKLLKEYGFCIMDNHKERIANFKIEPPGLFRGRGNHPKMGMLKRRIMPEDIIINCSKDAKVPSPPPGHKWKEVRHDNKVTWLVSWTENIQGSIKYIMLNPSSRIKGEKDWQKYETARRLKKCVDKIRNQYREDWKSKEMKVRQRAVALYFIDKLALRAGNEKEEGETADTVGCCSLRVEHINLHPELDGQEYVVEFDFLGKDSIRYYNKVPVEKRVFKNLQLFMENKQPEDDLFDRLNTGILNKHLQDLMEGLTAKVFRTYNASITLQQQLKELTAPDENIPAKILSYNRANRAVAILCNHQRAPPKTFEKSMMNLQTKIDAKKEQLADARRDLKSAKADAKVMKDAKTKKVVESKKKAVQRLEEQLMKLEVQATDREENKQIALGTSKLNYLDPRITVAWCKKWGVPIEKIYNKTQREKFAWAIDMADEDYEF

[1] = RP-HPLC retention time correlated with hydrophobicity; format: physicochemical; details: high Rt = hydrophobic, low Rt = hydrophilic
Experimental: • Column: Phenomenex Gemini NX 5 m, C18, 110Å, 150×4.6 mm • Instrument: Shimadzu LC-2030 • Mobile phase: A) water (0.05% TFA), B) acetonitrile (0.05% TFA) • Gradient: 20-70% B over 15 min, flow 1.0 mL/min
A correlation study was also carried out using Reverse-Phase HPLC (RP-HPLC). The two constructs were injected in RP-HPLC and retention times (Rt) correlated with hydrophobicity—i.e., high Rt was associated to hydrophobic constructs whereas low Rt to hydrophilic ones.

[2] = Aggregation during conjugation to a test antibody (% monomer by SEC); format: physicochemical; details: drug linker conjugated to a test antibody
Experimental: 2 mg of a test monoclonal antibody at 8.87 mg/ml was pH adjusted with 5% 0.5 M Tris, 0.025 M EDTA, pH 8.5 and reduced with 2.3 mol. eq. TCEP and then conjugated with 6mol. eq. drug linker. After buffer exchange into 30 mM Histidine, 175 mM Sucrose pH 6.0/PBS, the drug to antibody ratio (DAR) was by HIC/LC-MS and % Monomer by size exclusion chromatography (SEC). Percentage monomer values of 95% or greater are assessed as low aggregation.
Aggregation levels were assessed during the conjugation to a test antibody. Conjugation was performed as described above for ADC-1.
During conjugation, we are ideally targeting a monomer content or percentage monomer of 95% or above. Low percentage monomer values usually translate to a higher degree of aggregation. One could therefore agree that percentage monomer values of 95% or higher mean very low levels of aggregation or none, whereas values below this threshold often translate to higher levels of aggregation.

Row | SMILES | potency relative to SN38 as a cytotoxin (a variety of cell lines) | potency relative to SN38 at stabilizing the topo I/DNA complex (topo I/DNA complex) | Rt [1] [min] | Aggregation (% monomer) ([2]; SEC, 95% or greater = low aggregation) | Aggregation ([2]; grade in words)
1 | CC[C@@]1(O)C(=O)OCc2c1cc1n(c2=O)Cc2c-1nc1cc(F)c(C)c3c1c2[C@@H](N)CC3 [Exatecan] | about 2.5 fold | about 2.5 fold | – | – | –
2 | CC[C@@]1(O)C(=O)OCc2c1cc1n(c2=O)Cc2c-1nc1cc(F)c(C)c3c1c2[C@@H](NC(=O)OCc1ccc(NC(=O)[C@H](C)NC(=O)[C@@H](NC(=O)CNC(=O)CNC(=O)CNC(=O)CNC(=O)CNC(=O)CCN2C(=O)C=CC2=O)C(C)C)cc1)CC3 [Mal-Gly5-VA-PABC-Exatecan] ({Propanoyl(3-maleimido)}-GGGGGVA[PABC]-Exatecan) | – | – | 9.76 | (98%) | None
